Test results: the COVID Moonshot data (paper PMC11187573), “Identification of SARS-CoV-2 Mpro inhibitors through deep reinforcement learning for de novo drug design and computational chemistry approaches” (RSC Medicinal Chemistry, 2024)

Assays:
[1] = molecular target: SARS-CoV-2 Main Protease (SARS-CoV-2) (UniProt P0DTD1)
[2] = molecular target: SARS-CoV-2 Main Protease (SARS-CoV-2) (UniProt P0DTD1); remark: listed apart in the source

Row | Compound | inhibition ([1]; 50.0 µM) [%] | IC50 [1] [µM] | further results
1 | Cc1oncc1C(=O)Nc1ccc(C(F)(F)F)cc1 | 0 |  | 
2 | C=CC(=O)N(c1cc(C(C)(C)C)on1)C(C(=O)NCCc1cccc(F)c1)c1cncc(C#N)c1 (configuration not stated) |  | 10.6 | 
3 | CCC(=O)Nc1ccc(N(Cc2ccccc2)C(=O)Nn2nnc3ccccc32)cc1 |  | 3.73 | 
4 | O=C(Cc1cccc(Cl)c1)N[C@H]1CCNC1=O (stereo in doubt) | 0 |  | 
5 | O=C(Cc1cccc(Cl)c1)Nc1nnc2ccccn12 |  | 93.9 | 
6 | O=C(Cn1nnc2ccccc21)N(Cc1ccsc1)c1ccc(N2CCCCC2)cc1 |  | 6.29 | 
7 | CC(=O)N1CCN(Cc2cccs2)CC1 | 95.7 |  | inhibition ([1]; 20.0 µM): 96.7%
8 | Cc1cc(O)c2c(c1)C1(O)CC(C2=O)C2=C1C(=O)c1c(O)cccc1C2=O (configuration not stated) | 81.1 | 58.2 | 
9 | O=C(COc1cccc(Cl)c1)Nc1cncc2ccccc12 |  | 6.02 | 
10 | O=C(Nc1ccc(Cl)cc1)[C@@H](c1ccccc1)N1Cc2ccccc2C1=O (stereo in doubt) |  | 65 | 
11 | CC(C)(C)c1ccc(N(C(=O)c2ccc(Cl)o2)C(C(=O)NCCc2cccc(F)c2)c2cccnc2)cc1 (configuration not stated) | 69.3 | 0.515 | 
12 | O=C(c1cc(=O)[nH]c2ccccc12)N1CCN(c2cccc(C(F)(F)F)c2)CC1 | 71 | 5.65 | 
13 | O=C(c1cc(=O)[nH]c2ccccc12)N1CCN(c2cccc(Cl)c2)C(=O)C1 |  | 9.61 | 
14 | OC[C@H]1O[C@H]([S][Au])[C@H](O)[C@@H](O)[C@@H]1O (stereo in doubt) | 83.1 |  | 
15 | O=C(Cn1nnc2ccccc21)N(Cc1ccsc1)c1ccc(N2CCOCC2)cc1 |  | 21.3 | 
16 | COc1cc(Cl)cc2c1OCC[C@@H]2C(=O)Nc1cncc2ccccc12 (stereo in doubt) |  | 10.2 | 
17 | Cc1ccncc1NC(=O)Cc1cc(Cl)cc(NCC(C)(C)C#N)c1 |  | 32.9 | 
18 | Cc1cc(C(=O)CCl)c(C)n1CC1COc2ccccc2O1 (configuration not stated) | 82.2 | 4.15 | 
19 | O=C(Nc1cccnc1)[C@@H](c1ccccc1)N1Cc2ccccc2C1=O (stereo in doubt) |  | 59.6 | 
20 | COc1c(Cl)cccc1OCCNC(=O)c1cc(=O)[nH]c2ccccc12 |  | 16.5 | 
21 | O=C(Cc1cncc2ccccc12)Nc1cccc(Cl)c1 |  | 7.2 | 
22 | Cc1cc2c(c(O)c1-c1c(C)cc(O)c3c1C(=O)C=CC3=O)C(=O)C=CC2=O | 100 | 8.41 | 
23 | COc1ccc2c(=O)cc(-c3ccc(OCc4ccccc4)cc3)oc2c1 | 10.7 |  | 
24 | O=C(c1cc(=O)[nH]c2ccccc12)N1CCN(Cc2cccc(C(F)(F)F)c2)CC1 | 24.8 |  | 

Row | Compound | inhibition ([1]; 50.0 µM) [%] | IC50 [1] [µM] | further results
25 | CN(CC(=O)Nc1ccccc1Br)C(=O)CCl | 52.3 |  | 
26 | O=C(Nc1cncc2ccccc12)C1COc2c(Cl)cccc21 (configuration not stated) |  | 5.36 | 
27 | Cc1cc(C(F)(F)F)nc2n[nH]c(NC(=O)Cc3cccc(Cl)c3)c12 |  | 82 | 
28 | C/C=C1\C(C2(C)CCCC(C)(C)C2)=CCC2C1[C@@H](OC(C)=O)O[C@H]2OC(C)=O (stereo in doubt) | 0 |  | 
29 | O=C(Nc1cncc2ccccc12)C1(CCC2CC2)CCOc2ccc(Cl)cc21 (configuration not stated) |  | 93.9 | 
30 | COC(=O)C(C(=O)Nc1cnccc1C)c1cccc(Cl)c1 (configuration not stated) |  | 17.1 | 
31 | O=C(CC(C[S][Au])C(=O)[O][Na])[O][Na] (configuration not stated) | 39.1 |  | 
32 | COc1ccc(Cl)cc1OCCNC(=O)c1cc(=O)[nH]c2ccccc12 |  | 0.692 | 
33 | Cc1ccncc1NC(=O)Cc1cc(Cl)cc(NC2CC2C(F)(F)F)c1 (configuration not stated) |  | 19.7 | 
34 | O=C(c1cc(=O)cc[nH]1)N1CCN(c2cccc(Cl)c2)CC1 |  | 58.9 | 
35 | COc1cccc2[nH]c(=O)cc(C(=O)N3CCN(c4cccc(Cl)c4)CC3)c12 |  | 1.84 | 
36 | Cc1ccncc1NC(=O)Cc1cc(Cl)cc(OC2COC2)c1 |  | 15.3 | 
37 | Cc1ccncc1NC(=O)C(CO)c1cccc(Cl)c1 (configuration not stated) |  | 47.3 | 
38 | O=C(Cc1cc(Cl)cc(CC2CC(=O)N2)c1)Nc1cncc2ccccc12 (configuration not stated) |  | 4.42 | 
39 | Nc1nn(C(=O)Cc2cccc(Cl)c2)c2cccc(F)c12 |  | 52.6 | 
40 | O=c1cc(-c2ccc(OCc3ccccc3)cc2)oc2ccccc12 | 35.9 |  | 
41 | O=C(CCc1cccc(Cl)c1)Nc1cncc2ccccc12 |  | 19.3 | 
42 | CC(C)[C@H](NC(=O)OCc1ccccc1)C(=O)NC(C=O)Cc1ccccc1 (stereo in doubt) | 0 |  | 
43 | O=C(CN(C(=O)Cc1cccnc1)c1ccc(-c2ncccn2)cc1)N1CCNCC1 | 0 |  | 
44 | CC(=O)O[C@@H]1OC2OC(=O)[C@H](C)C3=C([C@@]4(C)CCCC(C)(C)C4)CCC1C32 (stereo in doubt) | 0 |  | 
45 | O=C(Cc1cccc(Cl)c1)Nc1cncc2c1CCC2 |  | 4.65 | 
46 | O=c1c(O)c(-c2cc(OCc3ccccc3)ccc2OCc2ccccc2)oc2ccccc12 | 0.254 |  | 
47 | COc1ccc(OCc2ccccc2)cc1-c1cc(=O)c2ccccc2o1 | 7.52 |  | 
48 | O=C(Nc1ccccc1)[C@@H](c1ccccc1)N1Cc2ccccc2C1=O (stereo in doubt) |  | 99.8 | 

Row | Compound | inhibition ([1]; 50.0 µM) [%] | IC50 [1] [µM] | further results
49 | O=C(Cn1nnc2ccccc21)Nc1cccc(Cl)c1 | 55.1 | 29.4 | 
50 | O=C(Cc1cncc2ccccc12)Nc1cc(Cl)cc(OC2CCC(=O)N2)c1 (configuration not stated) |  | 19.4 | 
51 | N#Cc1ccccc1NC(=O)[C@@H](c1ccccc1)N1Cc2ccccc2C1=O (stereo in doubt) |  | 57.9 | 
52 | O=C(Cc1cccc(Cl)c1)Nc1cncc2nc[nH]c12 | 79.5 | 7.97 | 
53 | Cc1c(N)cncc1NC(=O)Cc1cccc(Cl)c1 |  | 8.2 | 
54 | N#CC(C(=O)Nc1ccccc1)C(=O)c1cccs1 (configuration not stated) | 0 |  | 
55 | COc1ccc2c(NC(=O)C3CCOc4ccc(Cl)cc43)noc2c1 (configuration not stated) |  | 53.4 | 
56 | O=C(Nc1cccc(F)c1)[C@@H](c1ccccc1)N1Cc2ccccc2C1=O (stereo in doubt) |  | 59.9 | 
57 | O=C(Nc1cncc2ccccc12)[C@H]1COc2ccc(Cl)cc2C1 (stereo in doubt) |  | 37.7 | 
58 | Cc1ccncc1NC(=O)Cc1cc(Cl)cc(OCc2n[nH]c3ccccc23)c1 | 9.6 |  | 
59 | Cc1ccncc1NC(=O)Cc1cc(Cl)cc(-c2ccc(C3CC3(F)F)cc2)c1 (configuration not stated) |  | 2.83 | 
60 | Cc1ccncc1N1CCC(c2cccc(Cl)c2)C1=O (configuration not stated) |  | 12.9 | 
61 | C=C1CCC[C@H]2[C@](C)(CC3=C(O)C(=O)C=C(OC)C3=O)[C@@H](C)CC[C@]12C (stereo in doubt) | 2.35 |  | 
62 | Cc1ccncc1NC(=O)Cc1cc(Cl)cc(OCCN2CCOCC2C)c1 (configuration not stated) | 23.9 |  | 
63 | CC(=O)N1CCN(Cc2ccsc2)CC1 | 97.4 |  | inhibition ([1]; 20.0 µM): 98.5%
64 | Cc1ccc(N(Cc2cccc(Cl)c2)C(=O)Cn2nnc3ccccc32)cc1 |  | 3.3 | 
65 | O=C(NC[C@@]1(COc2ccc(C(F)(F)F)cn2)C[C@@H](O)[C@@H](O)C1)Nc1cccnc1 | 0 |  | 
66 | CC(C)(C)c1ccc(N(C(=O)c2cnc[nH]2)C(C(=O)NCCc2cccc(F)c2)c2cccnc2)cc1 (configuration not stated) | 100 | 1.05 | 
67 | COc1ccc(N2C(=O)CCS2(=O)=O)cc1S(=O)(=O)Nc1cccc2cccnc12 |  |  | inhibition ([2]; 20.0 µM): 65.3%; inhibition ([2]; 50.0 µM): 37.4%
68 | CC(C)Cn1cc(NC(=O)NCCc2c[nH]c3ccccc23)c2ccccc2c1=O |  |  | inhibition ([2]; 20.0 µM): 1.66%; inhibition ([2]; 50.0 µM): 6.69%
69 | CC(C)Cn1cc(NC(=O)NCC2CCCO2)c2ccccc2c1=O (configuration not stated) |  |  | inhibition ([2]; 20.0 µM): -0.42%; inhibition ([2]; 50.0 µM): 6.75%
70 | COC(=O)c1c(C)nn(-c2ccccc2)c1-c1cc(C)on1 |  |  | inhibition ([2]; 20.0 µM): 18.8%; inhibition ([2]; 50.0 µM): 3.16%
71 | COc1ncc(Br)cc1Nc1cc(Cl)cc(CC(=O)Nc2cncc3ccccc23)c1 |  |  | IC50 [2]: 0.681 µM
72 | O=C(O)CNC(=O)c1ncc(-c2cccc(Cl)c2)cc1O |  |  | inhibition ([2]; 20.0 µM): 1.43%; inhibition ([2]; 50.0 µM): -1.75%

Row | Compound | inhibition ([1]; 50.0 µM) [%] | IC50 [1] [µM] | further results
73 | O=C(Nc1nncn1C1CC1)C1CCOc2ccccc21 (configuration not stated) |  |  | inhibition ([2]; 20.0 µM): -1.27%; inhibition ([2]; 50.0 µM): 2.15%
74 | Cc1nc2n(n1)CC(C(=O)NC(C)(C(=O)Nc1cncc3ccccc13)c1ccc(Cl)c(Cl)c1)CC2 (configuration not stated) |  |  | IC50 [2]: 4.82 µM
75 | CC1(C)CN(C(=O)c2ccc(-c3cccc4nc(NC(=O)C5CC5)nn34)cc2)C1 |  |  | inhibition ([2]; 20.0 µM): -1.13%; inhibition ([2]; 50.0 µM): 0.838%
76 | CCOC(=O)Cc1csc(NC(=O)Nc2cn(CC(C)C)c(=O)c3ccccc23)n1 |  |  | inhibition ([2]; 20.0 µM): 23.2%; inhibition ([2]; 50.0 µM): 2.55%
77 | COc1ccc(OC)c(CNC(=O)Nc2cn(C)c(=O)c3ccccc23)c1 |  |  | inhibition ([2]; 20.0 µM): 25%; inhibition ([2]; 50.0 µM): 3.4%
78 | Cc1[nH]c2ncnc(NC(=O)C3CCN(c4ccc(Cl)cn4)CC3)c2c1C |  |  | inhibition ([2]; 20.0 µM): -8.15%; inhibition ([2]; 50.0 µM): -5.21%
79 | C=CC(=O)N(c1ccc(CCC#N)cc1)C(C(=O)NC(C)(C)C)c1cccnc1 (configuration not stated) |  |  | inhibition ([2]; 20.0 µM): 1.48%; inhibition ([2]; 50.0 µM): 3.3%
80 | Cc1ccncc1NC(=O)N(C)c1cccc(Cl)c1 |  |  | inhibition ([2]; 20.0 µM): 17.6%; inhibition ([2]; 50.0 µM): 33.8%
81 | Cn1cnc(CN(C(=O)c2cnnn2-c2ccccc2)c2ccc(OCc3ccccc3)cc2)c1 |  |  | inhibition ([2]; 20.0 µM): -1.63%; inhibition ([2]; 50.0 µM): 1.89%
82 | CC(C)Cn1cc(NC(=O)NCc2ccc3c(c2)OCO3)c2ccccc2c1=O |  |  | inhibition ([2]; 20.0 µM): 15.3%; inhibition ([2]; 50.0 µM): 11.2%
83 | Cn1cc(NC(=O)Nc2cccc(C(F)(F)F)c2)c2ccccc2c1=O |  |  | inhibition ([2]; 20.0 µM): -2.91%; inhibition ([2]; 50.0 µM): 0.168%
84 | Cc1noc(C)c1CCNC(=O)Nc1cn(CC(C)C)c(=O)c2ccccc12 |  |  | inhibition ([2]; 20.0 µM): 39%; inhibition ([2]; 50.0 µM): 94.5%
85 | Cc1ccc2nc(Nc3cc(Cl)cc(CC(=O)Nc4cncc5ccccc45)c3)sc2c1 |  |  | IC50 [2]: 0.45 µM
86 | O=C(Nc1cnn2ccc(N3CCC[C@@H]3c3cc(F)ccc3F)nc12)N1CC[C@H](O)C1 (stereo in doubt) |  |  | inhibition ([2]; 20.0 µM): -17.2%; inhibition ([2]; 50.0 µM): -4.24%
87 | COC(=O)C(c1ccccc1Cl)N1CCC(S)/C(=C/C(=O)O)C1 (configuration not stated) |  |  | inhibition ([2]; 20.0 µM): -2.05%; inhibition ([2]; 50.0 µM): 1.77%
88 | O=C1CCCCC(C(=O)Nc2ccc(-c3nc[nH]n3)cc2F)N1 (configuration not stated) |  |  | inhibition ([2]; 20.0 µM): -4.07%; inhibition ([2]; 50.0 µM): -3.07%
89 | CC1Cn2nccc2CN1C(=O)CC1(C(=O)Nc2cncc3ccccc23)CCOc2ccc(Cl)cc21 (configuration not stated) |  |  | IC50 [2]: 2.11 µM
90 | Cc1ccncc1CC(=O)Nc1cccc2c1CNCC2 |  |  | inhibition ([2]; 20.0 µM): -1.08%; inhibition ([2]; 50.0 µM): 2.76%
91 | COc1cccc2[nH]c(=O)cc(C(=O)NCCOc3ccccc3OCC3CC3)c12 |  |  | IC50 [2]: 1.92 µM
92 | C[C@@H]1CC[C@@H](c2ccoc2)N2C1CC[C@@]1(CS[C@@]3(CC[C@H]4[C@H](C)CC[C@@H](c5ccoc5)N4[C@@H]3O)C1)[C@@H]2O (stereo in doubt) |  |  | inhibition ([2]; 20.0 µM): -19.4%; inhibition ([2]; 50.0 µM): -23.4%
93 | Cc1cc(Cn2nnc3c(-c4ccco4)nc(N)nc32)ccc1N |  |  | inhibition ([2]; 20.0 µM): 1.89%; inhibition ([2]; 50.0 µM): -1.33%
94 | CCCc1c(C)[nH]c2[nH]n(-c3ccccc3)c(=O)c2c1=O |  |  | inhibition ([2]; 20.0 µM): 4.23%; inhibition ([2]; 50.0 µM): 2.81%
